Measured values: patent US20160009686A1, “VEGFR3 INHIBITORS” (CANCER THERAPEUTICS CRC PTY LIMITED, priority 2012, published 2016)

Key:
FAK = biological target: T1, FAK (Homo sapiens, UniProt Q05397); assay: P397Y-FAK Inhibition MSD Platform Cellular Biomarker Assay; type: cell-based; conditions: MDA-231-LNA cells, treated for 1 hour; pFAK-397 levels
T1 construct: endogenous in cells; host or cells: MDA-231-LNA
Method: 96-well plates (cat#MA6000, Meso Scale Discovery) are coated with 30 μL/well of mouse monoclonal FAK antibody [63D5] (cat#ab72140, Abcam) pre-diluted in PBS to a concentration of 1 mg/mL. The plates are sealed with adhesive film and incubated for 16 hours at 4° C. The antibody is then flicked out of the plates and 150 μL of 3% [w/v] Blocker A (cat#R93AA-1, Meso Scale Discovery) is added. The plates are resealed with adhesive film and incubated at room temperature on a shaker set at medium speed for 2 hours. The plates are then washed three times with a solution containing 50 mM Tris-HCl pH 7.5, 0.15 M NaCl and 0.02% Tween-20, before cell lysate addition described below.
On the day prior to compound treatment, 200 μL media containing 20,000 cells is seeded into all wells of white, clear-bottom, TC treated, pclear, 96-well microtitre plates (cat#655098, Greiner Bio-One), and the plates are incubated at 37° C. and 5% CO2 for 36 hours. 1 μL/well of compound is then added from dilution series prepared in DMSO. Negative control wells receive the same volume of DMSO without compounds, and positive control wells receive 2 μM of a control compound in the same volume of DMSO. Cells are treated for 1 hour at 37° C. and 5% CO2. The media/compounds are then flicked off and 55 μL/well of ice-cold complete lysis buffer is added. […] Plates are incubated on ice for 30 minutes, with 30 seconds high speed plate shaking every 5 minutes. 40 μL/well of cell lysate is transferred to the coated, blocked and washed 96-well microtitre plates described above. The 96-well plates are sealed with adhesive film and incubated for 16 hours at 4° C. The plates are then washed three times with a solution containing 50 mM Tris-HCl pH 7.5, 0.15 M NaCl and 0.02% Tween-20 and tapped dry. […] Plates are then washed three times with a solution containing 50 mM Tris-HCl pH 7.5, 0.15 M NaCl and 0.02% Tween-20 and tapped dry. 150 μL/well of Read Buffer T+Surfactant (cat#R92TC-1, Meso Scale Discovery) is then added, and pFAK-397 levels quantified using a Meso Scale Discovery SECTOR Imager 6000 instrument.

VEGFR2 = biological target: T2, VEGFR2 (Homo sapiens, UniProt P35968); assay: VEGFR2 Phospho ELISA Assay; type: cell-based; conditions: HUVEC, treated for 1 hour, VEGF stimulated; phospho VEGFR2 relative to Total VEGFR2
T2 construct: host or cells: HUVEC
Method: Adult human umbilical vein endothelial cells (HUVEC) (Cat# CC-2519, Lonza) were seeded into clear-bottom, TC treated 12 well plates (Cat #665180, Greiner Bio-One) in EGM-2 (Cat# CC-3162, Lonza) at 180,000 cells/well (volume 1 mL), and the plates incubated at 37° C. and 5% CO2 for 6 hours.
96 well Maxisorp immuno plates (Cat #439454, Nunc) were coated with 100 μL of Total VEGFR2 capture antibody (Part #841434, Human Total VEGFR2/FLT4 ELISA Kit, Cat # DYC1780, R&D Systems), or Phospho VEGFR2 Capture antibody (Part #841419, Human Phospho VEGFR2/FLT4 ELISA Kit, Cat# DYC1766, R&D Systems). The plates were covered and incubated at room temperature overnight.
The coating antibody was flicked out and the plates washed three times with Wash Buffer (Phosphate buffered saline (137 mM NaCl, 2.7 nM KCl, 8.1 nM Na2HPO4, 1.5 mL KH2PO4, pH 7.2-7.4), 0.05% Tween 20). 300 μL of Blocking buffer (1% v/v BSA (Cat# A8412, Sigma) in PBS) was then added to wells and plate incubated for 2 hours at room temperature. Blocking solution is flicked out and plates washed three times and tapped dry.
Compound dilution series were prepared in EBM-2 (Cat # CC-3156, Lonza)+0.1% BSA (Cat# A8412, Sigma) with constant 0.1% DMSO concentration. 427.5 μL of sample or vehicle control was added to the cell monolayers. Cells are treated for 1 hour at 37° C. and 5% CO2. 50 ng/mL Recombinant human VEGF (Cat #293-VC, R & D Systems) added to wells and plates incubated for an additional 10 minutes at 37° C. and 5% CO2.
(§1) The media and compounds were removed and the cell monolayer washed once in Dulbecco's Phosphate Buffered Saline (Cat #21600-044, Invitrogen). 130 μL of Lysis buffer added to wells and cell lysate harvested and transferred to tubes and stored on ice. Complete lysis buffer was prepared by adding 10 μL Protease Inhibitor Cocktail (Cat # P8340, Sigma-Aldrich), 10 μL PMSF (Phenylmethanesulfonyl fluoride, Cat # P7626, Sigma-Aldrich, prepared as 500 mM DMSO stock) per 1 mL of Phosphosafe™ Extraction Reagent (Cat #71296, Merck).
The plates were then washed three times in wash buffer as described above and tapped dry.
For detection of Total VEGFR2 100 μL of Detection antibody (Total VEGFR2 Detection Antibody Part#841435 in Total VEGFR2 kit) diluted in IC Diluent #14 (20 mM Tris, 137 mM CaCl2, 0.05% Tween20, 0.1% BSA) was added to wells and the plate incubated for 2 hours at room temperature. The plate was then washed three times in wash buffer and tapped dry. 100 μL of streptavidin-HPR diluted in IC diluent #14 Streptavidin-HRP, Part #890803 in Total VEGFR2 kit) was added to wells and incubated at room temperature for 20 minutes followed by washing as described above. 100 μL Substrate solution (3,3′,5,5′-Tetramethylbenzidine (TMB) Liquid Substrate System for ELISA, Cat # T0440, Sigma-Aldrich) was added and the plate incubated for 20 minutes in the dark at room temperature followed by the addition of 50 μL stop solution (2 M H2SO4).
Total VEGFR2 levels were quantified using a Multiskan Ascent plate reader and Ascent software fitted with 450 nm filter.
For detection of Phospho VEGFR2, 100 μL of Detection antibody (Anti-Phospho-Tyrosine-HRP Detection Antibody, Part #841403 in Phospho VEGFR2 kit) was diluted in IC Diluent 14 (20 mM Tris, 137 mM CaCl2, 0.05% Tween20, 0.1% BSA), was added to the wells and the plate incubated for 2 hours at room temperature. The plate was then washed three times in wash buffer as described above and tapped dry. 100 μL Substrate solution (3,3′,5,5′-Tetramethylbenzidine (TMB) Liquid Substrate System for ELISA, Cat # T0440, Sigma-Aldrich) was added and the plate incubated for 20 minutes in the dark at room temperature followed by the addition of 50 μL stop solution (2 M H2SO4).
Phospho VEGFR2 levels were quantified using a Multiscan ascent plate reader and ascent software fitted with 450 nm filter.
IC50 values are determined by first calculating the level of phospho VEGFR2 relative to Total VEGFR2 according to the following formula:

[1] = biological target: VEGFR3 cytoplasmic domain (Homo sapiens, UniProt P35916); assay: VEGFR3 Biochemical Assay (AlphaScreen); conditions: GST-fusion enzyme, 500 μM ATP, 90 minutes at 30 degree Celsius (modified form in some cases: Hexa-His-fusion enzyme, 1 μM ATP); read-out: IC50
VEGFR3 = VEGFR3 (Homo sapiens, UniProt P35916); assay: VEGFR3 Phospho ELISA Assay; type: cell-based; conditions: HMVEC-dLyAD cells, treated for 1 hour, VEGFC stimulated; phospho VEGFR3 relative to Total VEGFR3
Sequence of VEGFR3 (P35916 25-1363): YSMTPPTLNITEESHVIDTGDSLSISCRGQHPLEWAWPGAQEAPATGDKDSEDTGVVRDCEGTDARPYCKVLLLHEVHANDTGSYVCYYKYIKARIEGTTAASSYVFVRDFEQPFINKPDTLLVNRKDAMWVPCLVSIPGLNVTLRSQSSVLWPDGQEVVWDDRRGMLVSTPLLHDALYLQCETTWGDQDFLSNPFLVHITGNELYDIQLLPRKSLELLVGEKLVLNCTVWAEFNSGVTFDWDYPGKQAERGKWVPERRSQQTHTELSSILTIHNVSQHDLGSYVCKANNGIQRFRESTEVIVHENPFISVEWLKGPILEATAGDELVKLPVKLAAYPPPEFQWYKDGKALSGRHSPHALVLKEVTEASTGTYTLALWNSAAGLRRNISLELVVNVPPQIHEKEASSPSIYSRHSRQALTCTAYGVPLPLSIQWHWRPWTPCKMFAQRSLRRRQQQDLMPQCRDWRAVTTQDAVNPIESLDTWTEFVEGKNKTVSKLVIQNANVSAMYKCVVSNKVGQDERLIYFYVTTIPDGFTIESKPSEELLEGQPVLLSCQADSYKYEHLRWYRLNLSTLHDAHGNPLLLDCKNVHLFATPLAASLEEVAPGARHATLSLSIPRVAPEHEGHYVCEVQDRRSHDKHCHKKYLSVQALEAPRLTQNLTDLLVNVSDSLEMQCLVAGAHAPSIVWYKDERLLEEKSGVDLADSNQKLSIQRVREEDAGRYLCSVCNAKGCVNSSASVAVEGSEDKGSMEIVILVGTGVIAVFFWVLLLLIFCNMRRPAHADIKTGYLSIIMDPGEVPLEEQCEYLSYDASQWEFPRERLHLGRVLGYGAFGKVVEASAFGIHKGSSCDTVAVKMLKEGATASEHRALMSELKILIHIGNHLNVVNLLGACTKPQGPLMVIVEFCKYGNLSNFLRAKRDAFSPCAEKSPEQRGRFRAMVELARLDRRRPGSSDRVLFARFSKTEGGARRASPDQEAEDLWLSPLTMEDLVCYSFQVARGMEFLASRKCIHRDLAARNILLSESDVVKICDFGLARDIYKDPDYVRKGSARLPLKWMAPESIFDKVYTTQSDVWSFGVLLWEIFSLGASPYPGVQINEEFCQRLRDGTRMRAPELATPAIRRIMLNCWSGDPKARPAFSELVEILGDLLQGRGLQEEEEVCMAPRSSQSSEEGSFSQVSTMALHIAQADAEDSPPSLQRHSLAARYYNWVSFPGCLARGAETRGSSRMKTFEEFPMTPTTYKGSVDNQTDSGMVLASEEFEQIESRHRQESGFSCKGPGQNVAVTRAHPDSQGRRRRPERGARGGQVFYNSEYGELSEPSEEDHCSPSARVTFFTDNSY
Method: Adult human dermal lymphatic microvascular endothelial cells (HMVEC-dLyAD) (Cat# CC-2810, Lonza) were seeded into clear-bottom, TC treated 12 well plates (Cat #665180, Greiner Bio-One) in EGM-2MV (Cat# CC-3202, Lonza) at 180,000 cells/well (volume 1 mL), and the plates incubated at 37° C. and 5% CO2 for 6 hours.
96 well Maxisorp immuno plates (Cat #439454, Nunc) were coated with 100 μL of Total VEGFR3 capture antibody (Part #841888, Human Total VEGFR3/FLT4 ELISA Kit, Cat # DYC3491, R&D Systems), or Phospho VEGFR3 Capture antibody (Part #841885, Human Phospho VEGFR3/FLT4 ELISA Kit, Cat# DYC2724, R&D Systems). The plates were covered and incubated at room temperature overnight.
The coating antibody was flicked out and the plates washed three times with Wash Buffer (Phosphate buffered saline (137 mM NaCl, 2.7 nM KCl, 8.1 nM Na2HPO4, 1.5 mL KH2PO4, pH 7.2-7.4), 0.05% Tween 20). 300 μL of blocking buffer (5% v/v Tween 20, 5% w/v sucrose in PBS) was then added to wells and plate incubated for 2 hours at room temperature. Blocking solution is flicked out and plates washed three times and tapped dry.
Compound dilution series were prepared in EBM-2 (Cat # CC-3156, Lonza)+0.1% BSA (Cat# A8412, Sigma) with constant 0.1% DMSO concentration. 439 μL of sample or vehicle control was added to the cell monolayers. Cells are treated for 1 hour at 37° C. and 5% CO2. 250 ng/mL Recombinant human VEGFC (Cat #2179-VC, R & D Systems) added to wells and plates incubated for an additional 10 minutes at 37° C. and 5% CO2.
as §1
The harvested samples were then diluted 1:2 in IC Diluent #18 (5% Tween 20/PBS) and 100 μL transferred to the Total and Phospho VEGFR3 coated, blocked and washed 96 well plates and incubated for 2 hours at room temperature. The plates were then washed three times in wash buffer as described above and tapped dry. For detection of Total VEGFR3 100 μL of Detection antibody (Total VEGFR3 Detection Antibody Part#841888 in Total VEGFR3 kit) diluted in IC Diluent #1 (1% w/v BSA (Cat # A7906, Sigma-Aldrich)/PBS) was added to wells and the plate incubated for 2 hours at room temperature. The plate was then washed three times in wash buffer and tapped dry. 100 μL of streptavidin-HPR diluted in IC diluent #1 Streptavidin-HRP, Part #890803 in Total VEGFR3 kit) was added to wells and incubated at room temperature for 20 minutes followed by washing as described above. 100 μL Substrate solution (3,3′,5,5′-Tetramethylbenzidine (TMB) Liquid Substrate System for ELISA, Cat # T0440, Sigma-Aldrich) was added and the plate incubated for 20 minutes in the dark at room temperature followed by the addition of 50 μL stop solution (2 M H2SO4).
Total VEGFR3 levels were quantified using a Multiskan Ascent plate reader and Ascent software fitted with 450 nm filter.
For detection of Phospho VEGFR3, 100 μL of Detection antibody (Anti-Phospho-Tyrosine-HRP Detection Antibody, Part #841403 in Phospho VEGFR3 kit) was diluted in IC Diluent #1 (1% w/v BSA/PBS), added to the wells and the plate incubated for 2 hours at room temperature. The plate was then washed three times in wash buffer as described above and tapped dry. 100 μL Substrate solution (3,3′,5,5′-Tetramethylbenzidine (TMB) Liquid Substrate System for ELISA, Cat # T0440, Sigma-Aldrich) was added and the plate incubated for 20 minutes in the dark at room temperature followed by the addition of 50 μL stop solution (2 M H2SO4).

T1 sequence (Q05397 whole entry): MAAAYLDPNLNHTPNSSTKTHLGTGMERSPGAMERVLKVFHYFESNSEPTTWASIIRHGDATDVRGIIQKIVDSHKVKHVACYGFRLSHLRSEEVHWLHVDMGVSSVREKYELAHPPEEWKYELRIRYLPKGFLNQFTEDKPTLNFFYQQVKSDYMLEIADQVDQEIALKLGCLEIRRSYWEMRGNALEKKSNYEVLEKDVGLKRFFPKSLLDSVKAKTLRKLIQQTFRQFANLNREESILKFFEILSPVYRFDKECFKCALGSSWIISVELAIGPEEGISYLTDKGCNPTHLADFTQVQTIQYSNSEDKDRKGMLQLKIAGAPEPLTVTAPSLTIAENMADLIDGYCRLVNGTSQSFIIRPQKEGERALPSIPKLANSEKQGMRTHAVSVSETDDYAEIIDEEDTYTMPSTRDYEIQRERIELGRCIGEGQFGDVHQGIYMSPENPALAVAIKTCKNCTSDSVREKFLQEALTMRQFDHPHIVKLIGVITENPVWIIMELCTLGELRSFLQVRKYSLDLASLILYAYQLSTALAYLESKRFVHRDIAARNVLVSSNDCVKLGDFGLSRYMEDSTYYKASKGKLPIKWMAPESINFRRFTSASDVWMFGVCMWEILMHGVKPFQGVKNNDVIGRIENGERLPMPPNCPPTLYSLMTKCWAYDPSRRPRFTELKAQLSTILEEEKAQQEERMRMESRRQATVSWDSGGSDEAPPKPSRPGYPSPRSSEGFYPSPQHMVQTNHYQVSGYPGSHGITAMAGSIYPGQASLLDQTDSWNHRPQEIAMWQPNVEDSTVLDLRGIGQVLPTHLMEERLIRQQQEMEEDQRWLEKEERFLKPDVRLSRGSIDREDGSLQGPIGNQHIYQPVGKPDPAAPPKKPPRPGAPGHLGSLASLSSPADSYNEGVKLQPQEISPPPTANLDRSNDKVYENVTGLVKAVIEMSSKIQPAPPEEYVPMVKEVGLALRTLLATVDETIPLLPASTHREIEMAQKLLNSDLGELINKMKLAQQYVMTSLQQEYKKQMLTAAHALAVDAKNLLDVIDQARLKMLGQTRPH
T2 sequence (P35968 20-1356): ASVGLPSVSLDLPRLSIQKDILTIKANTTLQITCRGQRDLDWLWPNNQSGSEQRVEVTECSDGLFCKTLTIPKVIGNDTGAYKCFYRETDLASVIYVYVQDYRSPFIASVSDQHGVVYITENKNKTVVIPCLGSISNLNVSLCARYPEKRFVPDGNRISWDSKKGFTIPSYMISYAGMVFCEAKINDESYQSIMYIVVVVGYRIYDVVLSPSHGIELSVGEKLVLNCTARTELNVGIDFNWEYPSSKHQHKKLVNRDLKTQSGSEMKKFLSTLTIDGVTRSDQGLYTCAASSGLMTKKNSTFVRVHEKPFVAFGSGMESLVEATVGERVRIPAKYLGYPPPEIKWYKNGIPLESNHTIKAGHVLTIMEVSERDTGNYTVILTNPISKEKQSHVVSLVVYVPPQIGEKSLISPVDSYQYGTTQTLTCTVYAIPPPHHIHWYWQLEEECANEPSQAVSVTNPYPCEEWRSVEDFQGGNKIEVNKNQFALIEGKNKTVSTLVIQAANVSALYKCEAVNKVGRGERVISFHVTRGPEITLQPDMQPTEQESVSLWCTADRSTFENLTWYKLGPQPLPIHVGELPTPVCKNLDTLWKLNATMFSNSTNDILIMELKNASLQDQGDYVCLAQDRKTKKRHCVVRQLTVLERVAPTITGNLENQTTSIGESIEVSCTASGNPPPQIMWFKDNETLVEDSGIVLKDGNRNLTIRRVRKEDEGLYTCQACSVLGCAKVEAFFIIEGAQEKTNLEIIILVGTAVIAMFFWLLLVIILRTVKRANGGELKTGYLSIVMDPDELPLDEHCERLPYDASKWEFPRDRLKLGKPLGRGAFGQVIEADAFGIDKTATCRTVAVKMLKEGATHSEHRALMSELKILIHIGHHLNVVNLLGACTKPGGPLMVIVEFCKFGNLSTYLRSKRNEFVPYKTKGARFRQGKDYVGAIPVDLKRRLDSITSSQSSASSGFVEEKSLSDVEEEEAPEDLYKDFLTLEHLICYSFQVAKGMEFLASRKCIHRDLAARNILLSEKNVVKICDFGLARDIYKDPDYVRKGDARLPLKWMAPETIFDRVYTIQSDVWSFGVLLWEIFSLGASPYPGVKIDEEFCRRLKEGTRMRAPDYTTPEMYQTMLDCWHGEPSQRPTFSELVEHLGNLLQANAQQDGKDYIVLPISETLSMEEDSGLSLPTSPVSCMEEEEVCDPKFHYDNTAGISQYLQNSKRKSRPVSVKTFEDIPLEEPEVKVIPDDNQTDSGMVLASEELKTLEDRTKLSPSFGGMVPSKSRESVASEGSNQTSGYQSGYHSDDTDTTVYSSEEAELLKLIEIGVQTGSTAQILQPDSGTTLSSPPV
Sequence of VEGFR3 cytoplasmic domain (P35916 798-1298 isoform P35916-1): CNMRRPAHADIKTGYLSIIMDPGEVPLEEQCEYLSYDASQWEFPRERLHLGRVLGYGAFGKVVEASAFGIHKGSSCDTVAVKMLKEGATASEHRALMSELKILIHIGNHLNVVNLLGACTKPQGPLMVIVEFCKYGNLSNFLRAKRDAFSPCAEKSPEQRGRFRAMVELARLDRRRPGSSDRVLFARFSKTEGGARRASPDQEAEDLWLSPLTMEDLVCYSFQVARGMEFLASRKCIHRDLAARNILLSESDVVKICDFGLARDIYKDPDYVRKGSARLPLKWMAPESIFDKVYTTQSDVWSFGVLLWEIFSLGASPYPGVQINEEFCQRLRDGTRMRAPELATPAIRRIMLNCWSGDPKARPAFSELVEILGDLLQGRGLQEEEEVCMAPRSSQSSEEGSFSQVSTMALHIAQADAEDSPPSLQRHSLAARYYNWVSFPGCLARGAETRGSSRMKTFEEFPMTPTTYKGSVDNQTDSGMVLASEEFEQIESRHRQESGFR

Compound | IC50 (FAK) | IC50 (VEGFR2) | IC50 [1] | IC50 (VEGFR3)
NC(=O)C1(c2ccccc2CCc2nc(Nc3ccc(C4CNC4)cc3)ncc2C(F)(F)F)CC1 [Compound 4, 1-(2-(2-(2-((4-(azetidin-3-yl)phenyl)amino)-5-(trifluoromethyl)pyrimidin-4-yl)ethyl)phenyl)cyclopropanecarboxamide] | > 2000 nM | 2040 nM |  | 
CC(C(N)=O)c1ccccc1CCc1nc(Nc2cnn(C3CCNCC3)c2)ncc1C(F)(F)F (racemic) [Compound 56, 2-(2-(2-(2-((1-(piperidin-4-yl)-1H-pyrazol-4-yl)amino)-5-(trifluoromethyl)pyrimidin-4-yl)ethyl)phenyl)propanamide] | 517 nM |  |  | 
NC(=O)C1(c2ccccc2CCc2nc(Nc3ccc(C4CCNCC4)nc3)ncc2C(F)(F)F)CC1 [Compound 68, 1-(2-(2-(2-((6-(Piperidin-4-yl)pyridin-3-yl)amino)-5-(trifluoromethyl)pyrimidin-4-yl)ethyl)phenyl)cyclopropanecarboxamide] |  | 4080 nM | 28 nM | 51 nM
CCC(C(N)=O)c1ccccc1CCc1nc(Nc2ccc(C3CCNCC3)cc2)ncc1C(F)(F)F (racemic) [Compound 1, 2-(2-(2-(2-((4-(Piperidin-4-yl)phenyl)amino)-5-(trifluoromethyl)pyrimidin-4-yl)ethyl)phenyl)butanamide] | 1180 nM |  |  | 
NC(=O)C1(c2ccccc2CCc2nc(Nc3cnn(C4CCNCC4)c3)ncc2Cl)CC1 [Compound 17, 1-(2-(2-(5-Chloro-2-((1-(piperidin-4-yl)-1H-pyrazol-4-yl)amino)pyrimidin-4-yl)ethyl)phenyl)cyclopropanecarboxamide] |  | 393 nM | 9 nM | 62 nM
CC(C(N)=O)c1ccccc1CCc1nc(Nc2cnn(C)c2)ncc1C(F)(F)F (stereo not drawn) [Compound 55, 2-(2-(2-(2-((1-Methyl-1H-pyrazol-4-yl)amino)-5-(trifluoromethyl)pyrimidin-4-yl)ethyl)phenyl) propanamide] | 115 nM |  | 15 nM | 
NC(=O)C1(c2ccccc2CCc2nc(Nc3cn[nH]c3)ncc2Cl)CC1 [Compound 19, 1-(2-(2-(2-(1H-Pyrazol-4-ylamino)-5-chloropyrimidin-4-yl)ethyl)phenyl)cyclopropanecarboxamide] |  | 248 nM | 3 nM | 11 nM
